In ChEMBL document CHEMBL1136537, “The discovery of a new class of large-conductance Ca2+-activated K+ channel opener targeted for overactive bladder: synthesis and structure-activity relationships of 2-amino-4-azaindoles” (Bioorg Med Chem Lett, 2003):

Experiments:
[1] = target: T1, Calcium-activated potassium channel subunit alpha-1 (Homo sapiens, UniProt Q12791); experiment: [86Rb+] efflux induced by BKca alpha subunits expressed in HEK293 cells at 10 uM; type: cell-based
[2] = target: T1, Calcium-activated potassium channel subunit alpha-1; experiment: BKca channel opening activity in HEK293 cells stably transfected with BKca alpha subunits at 10 uM concentration using a [86Rb+] efflux assay; type: cell-based
[3] = target: T1, Calcium-activated potassium channel subunit alpha-1; experiment: BKca opening activity as outward current at 10 uM in HEK293 cells; type: cell-based
Sus scrofa [4] = species on record: Sus scrofa; experiment: In vitro concentration to suppress electrically stimulated contraction in isolated Landrance pig bladder detrusor strips; type: functional
Sus scrofa [5] = species on record: Sus scrofa; experiment: In vitro maximal efficacy in stable twitch response in isolated Landrace pig bladder detrusor strips relative to P-1075

T1 sequence (Q12791 whole entry): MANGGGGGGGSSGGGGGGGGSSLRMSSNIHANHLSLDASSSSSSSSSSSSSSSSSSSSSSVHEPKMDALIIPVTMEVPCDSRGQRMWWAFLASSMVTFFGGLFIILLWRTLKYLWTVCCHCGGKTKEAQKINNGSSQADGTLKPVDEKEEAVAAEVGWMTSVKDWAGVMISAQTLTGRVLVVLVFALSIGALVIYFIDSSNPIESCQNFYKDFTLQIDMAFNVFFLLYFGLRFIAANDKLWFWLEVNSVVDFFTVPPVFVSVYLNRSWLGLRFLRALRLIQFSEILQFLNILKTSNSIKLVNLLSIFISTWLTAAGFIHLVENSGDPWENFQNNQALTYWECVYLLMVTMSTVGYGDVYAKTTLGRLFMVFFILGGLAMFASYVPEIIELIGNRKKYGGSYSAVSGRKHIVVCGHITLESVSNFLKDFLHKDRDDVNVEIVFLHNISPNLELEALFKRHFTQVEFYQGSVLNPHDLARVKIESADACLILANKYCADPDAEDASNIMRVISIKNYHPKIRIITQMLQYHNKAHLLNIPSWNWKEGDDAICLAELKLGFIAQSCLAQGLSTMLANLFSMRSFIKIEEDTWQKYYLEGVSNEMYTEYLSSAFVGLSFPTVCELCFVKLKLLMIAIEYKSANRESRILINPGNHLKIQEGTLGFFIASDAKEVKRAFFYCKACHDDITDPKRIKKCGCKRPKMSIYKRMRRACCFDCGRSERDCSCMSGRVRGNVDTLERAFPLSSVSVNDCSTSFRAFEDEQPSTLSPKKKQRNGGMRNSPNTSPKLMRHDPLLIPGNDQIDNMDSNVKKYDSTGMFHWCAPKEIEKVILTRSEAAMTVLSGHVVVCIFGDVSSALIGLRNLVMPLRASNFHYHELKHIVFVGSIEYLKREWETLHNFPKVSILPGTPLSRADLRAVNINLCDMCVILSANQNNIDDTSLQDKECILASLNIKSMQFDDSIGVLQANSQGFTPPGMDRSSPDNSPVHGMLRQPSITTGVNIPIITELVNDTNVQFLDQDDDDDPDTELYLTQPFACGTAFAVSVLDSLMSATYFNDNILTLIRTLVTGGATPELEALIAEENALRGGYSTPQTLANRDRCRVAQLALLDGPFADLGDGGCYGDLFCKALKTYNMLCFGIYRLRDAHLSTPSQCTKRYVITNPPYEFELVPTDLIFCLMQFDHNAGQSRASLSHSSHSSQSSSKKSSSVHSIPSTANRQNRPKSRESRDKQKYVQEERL

How did the EC50 [1] turn out when `C[C@@H]1CC[C@@H](C)N1c1[nH]c2cccnc2c1C#N` was run?
The EC50 was “Not Active”.

What about the Response [2] of the same compound?
Its Response is 0%.

For `Cc1c(-c2ccccc2F)[nH]c(N)c1C#N`, which Response [3] is on record?
Its Response is 21.7%.

And the EC50 (Sus scrofa [4])?
Its EC50 is 63.1 µM.

And the Efficacy (Sus scrofa [5])?
Its Efficacy is 93%.

For `N#Cc1c(NCc2ccccc2)[nH]c2cccnc12`, which EC50 [1] is on record?
The EC50 was “Not Active”.

And the Response [2]?
The Response was 0%.

With `N#Cc1c(-n2ccnc2)[nH]c2cccnc12` as the compound, how does the EC50 [1] read?
The EC50 was 5.86 µM.

And the Response [2]?
The Response was 62%.

Which results are given for `N#Cc1c(N2CC3CCC(CC3)C2)[nH]c2cccnc12`?
EC50 [1]: 4.43 µM; Response [2]: 74%

With `N#Cc1c(N2CCCCCC2)[nH]c2cccnc12` as the compound, how does the Activity [3] read?
Its Activity is 105%.

What about the EC50 [1] of the same compound?
The EC50 was 3.34 µM.

What about the Response [2] of the same compound?
Its Response is 61%.

What about the EC50 (Sus scrofa [4]) of the same compound?
The EC50 was 25.9 µM.

What about the Efficacy (Sus scrofa [5]) of the same compound?
Its Efficacy is 63%.

Which EC50 [1] does the source give for `N#Cc1c(Nc2ccccc2)[nH]c2cccnc12` here?
The EC50 was “Not Active”.

And the Response [2]?
The Response was 0%.

Which results are given for `CN(C)c1[nH]c2cccnc2c1C#N`?
Activity [3]: 75.5%; EC50 [1]: 5.13 µM; Response [2]: 60%; EC50 (Sus scrofa [4]): 23.5 µM; Efficacy (Sus scrofa [5]): 58%

Which results are given for `N#Cc1c(N2CCC3CCCCC3C2)[nH]c2cccnc12` (stereo unspecified)?
EC50 [1]: Not Active; Response [2]: 0%

With `CCCN(CCO)c1[nH]c2cccnc2c1C#N` as the compound, how does the EC50 [1] read?
The EC50 was “Not Active”.

And the Response [2]?
Its Response is 0%.

With `N#Cc1c(N2CC[C@@H](O)C2)[nH]c2cccnc12` as the compound, how does the EC50 [1] read?
The EC50 was “Not Active”.

What about the Response [2] of the same compound?
The Response was 0%.

For `N#Cc1c(O)[nH]c2cccnc12`, which EC50 [1] is on record?
The EC50 was 13.4 µM.

And the Response [2]?
The Response was 65%.

With `CCN(CC)c1[nH]c2cccnc2c1C#N` as the compound, how does the EC50 [1] read?
The EC50 was 6.94 µM.

And the Response [2]?
The Response was 57%.

Which results are given for `CN1CCN(c2[nH]c3cccnc3c2C#N)CC1`?
EC50 [1]: Not Active; Response [2]: 0%

For `N#Cc1c(N2CCCCC2)[nH]c2cccnc12`, which EC50 [1] is on record?
Its EC50 is “Not Active”.

What about the Response [2] of the same compound?
Its Response is 3.02%.

And the EC50 (Sus scrofa [4])?
The EC50 was 24.8 µM.

And the Efficacy (Sus scrofa [5])?
Its Efficacy is 67%.

Which results are given for `N#Cc1c(Cl)[nH]c2cccnc12`?
EC50 [1]: Not Active; Response [2]: 0%

Which EC50 [1] does the source give for `N#Cc1c(N2CCOCC2)[nH]c2cccnc12` here?
Its EC50 is 3.86 µM.

What about the Response [2] of the same compound?
The Response was 62%.

Which results are given for `N#Cc1c(N2CCC[C@H]2CO)[nH]c2cccnc12`?
EC50 [1]: Not Active; Response [2]: 0%

For `N#Cc1c(N2CCC[C@H](O)C2)[nH]c2cccnc12`, which Activity [3] is on record?
The Activity was 108%.

What about the EC50 [1] of the same compound?
The EC50 was 5.07 µM.

And the Response [2]?
Its Response is 65%.

And the EC50 (Sus scrofa [4])?
The EC50 was 9.26 µM.

And the Efficacy (Sus scrofa [5])?
The Efficacy was 31%.

How did the EC50 [1] turn out when `N#Cc1c(N2CC=CC2)[nH]c2cccnc12` was run?
The EC50 was “Not Active”.

And the Response [2]?
The Response was 0%.

What does the source list for `N#Cc1c(N2CCC[C@@H]2CO)[nH]c2cccnc12`?
EC50 [1]: Not Active; Response [2]: 0%

How did the EC50 [1] turn out when `N#Cc1c(N2CCCC2)[nH]c2cccnc12` was run?
The EC50 was 8.12 µM.

What about the Response [2] of the same compound?
Its Response is 58%.

Which results are given for `N#Cc1c(N2CCC(O)CC2)[nH]c2cccnc12`?
EC50 [1]: 15.1 µM; Response [2]: 28%

What does the source list for `COC(=O)C1CCN(c2[nH]c3cccnc3c2C#N)CC1`?
EC50 [1]: 17 µM; Response [2]: 55%

`CN1CCCN(c2[nH]c3cccnc3c2C#N)CC1` was tested. Which EC50 [1] did it give?
The EC50 was “Not Active”.

What about the Response [2] of the same compound?
The Response was 0%.

For `N#Cc1c(N2CCCCCCC2)[nH]c2cccnc12`, which EC50 [1] is on record?
The EC50 was “Not Active”.

What about the Response [2] of the same compound?
Its Response is 0%.

With `CN(C)CCN(C)c1[nH]c2cccnc2c1C#N` as the compound, how does the EC50 [1] read?
The EC50 was 6.75 µM.

And the Response [2]?
The Response was 63%.
